Laboratory results: patent US11572590B2, “Methods for evaluating tumor cell spheroids using 3D microfluidic cell culture device” (Dana-Farber Cancer Institute, Inc., priority 2017, dated 2023)
Where two headings read alike, the source gives them in different places.

Key:
Assay in all cases: SelectScreen Kinase Profiling, single point inhibition and IC50 for off-target kinases
Assay type in all cases: biochemical
[1] = molecular target: off-target kinases (Homo sapiens, UniProt P08922); conditions: ROS1, ZLYTE, ATP Km app
off-target kinases (Homo sapiens, UniProt P08922), sequence (P08922 28-2347): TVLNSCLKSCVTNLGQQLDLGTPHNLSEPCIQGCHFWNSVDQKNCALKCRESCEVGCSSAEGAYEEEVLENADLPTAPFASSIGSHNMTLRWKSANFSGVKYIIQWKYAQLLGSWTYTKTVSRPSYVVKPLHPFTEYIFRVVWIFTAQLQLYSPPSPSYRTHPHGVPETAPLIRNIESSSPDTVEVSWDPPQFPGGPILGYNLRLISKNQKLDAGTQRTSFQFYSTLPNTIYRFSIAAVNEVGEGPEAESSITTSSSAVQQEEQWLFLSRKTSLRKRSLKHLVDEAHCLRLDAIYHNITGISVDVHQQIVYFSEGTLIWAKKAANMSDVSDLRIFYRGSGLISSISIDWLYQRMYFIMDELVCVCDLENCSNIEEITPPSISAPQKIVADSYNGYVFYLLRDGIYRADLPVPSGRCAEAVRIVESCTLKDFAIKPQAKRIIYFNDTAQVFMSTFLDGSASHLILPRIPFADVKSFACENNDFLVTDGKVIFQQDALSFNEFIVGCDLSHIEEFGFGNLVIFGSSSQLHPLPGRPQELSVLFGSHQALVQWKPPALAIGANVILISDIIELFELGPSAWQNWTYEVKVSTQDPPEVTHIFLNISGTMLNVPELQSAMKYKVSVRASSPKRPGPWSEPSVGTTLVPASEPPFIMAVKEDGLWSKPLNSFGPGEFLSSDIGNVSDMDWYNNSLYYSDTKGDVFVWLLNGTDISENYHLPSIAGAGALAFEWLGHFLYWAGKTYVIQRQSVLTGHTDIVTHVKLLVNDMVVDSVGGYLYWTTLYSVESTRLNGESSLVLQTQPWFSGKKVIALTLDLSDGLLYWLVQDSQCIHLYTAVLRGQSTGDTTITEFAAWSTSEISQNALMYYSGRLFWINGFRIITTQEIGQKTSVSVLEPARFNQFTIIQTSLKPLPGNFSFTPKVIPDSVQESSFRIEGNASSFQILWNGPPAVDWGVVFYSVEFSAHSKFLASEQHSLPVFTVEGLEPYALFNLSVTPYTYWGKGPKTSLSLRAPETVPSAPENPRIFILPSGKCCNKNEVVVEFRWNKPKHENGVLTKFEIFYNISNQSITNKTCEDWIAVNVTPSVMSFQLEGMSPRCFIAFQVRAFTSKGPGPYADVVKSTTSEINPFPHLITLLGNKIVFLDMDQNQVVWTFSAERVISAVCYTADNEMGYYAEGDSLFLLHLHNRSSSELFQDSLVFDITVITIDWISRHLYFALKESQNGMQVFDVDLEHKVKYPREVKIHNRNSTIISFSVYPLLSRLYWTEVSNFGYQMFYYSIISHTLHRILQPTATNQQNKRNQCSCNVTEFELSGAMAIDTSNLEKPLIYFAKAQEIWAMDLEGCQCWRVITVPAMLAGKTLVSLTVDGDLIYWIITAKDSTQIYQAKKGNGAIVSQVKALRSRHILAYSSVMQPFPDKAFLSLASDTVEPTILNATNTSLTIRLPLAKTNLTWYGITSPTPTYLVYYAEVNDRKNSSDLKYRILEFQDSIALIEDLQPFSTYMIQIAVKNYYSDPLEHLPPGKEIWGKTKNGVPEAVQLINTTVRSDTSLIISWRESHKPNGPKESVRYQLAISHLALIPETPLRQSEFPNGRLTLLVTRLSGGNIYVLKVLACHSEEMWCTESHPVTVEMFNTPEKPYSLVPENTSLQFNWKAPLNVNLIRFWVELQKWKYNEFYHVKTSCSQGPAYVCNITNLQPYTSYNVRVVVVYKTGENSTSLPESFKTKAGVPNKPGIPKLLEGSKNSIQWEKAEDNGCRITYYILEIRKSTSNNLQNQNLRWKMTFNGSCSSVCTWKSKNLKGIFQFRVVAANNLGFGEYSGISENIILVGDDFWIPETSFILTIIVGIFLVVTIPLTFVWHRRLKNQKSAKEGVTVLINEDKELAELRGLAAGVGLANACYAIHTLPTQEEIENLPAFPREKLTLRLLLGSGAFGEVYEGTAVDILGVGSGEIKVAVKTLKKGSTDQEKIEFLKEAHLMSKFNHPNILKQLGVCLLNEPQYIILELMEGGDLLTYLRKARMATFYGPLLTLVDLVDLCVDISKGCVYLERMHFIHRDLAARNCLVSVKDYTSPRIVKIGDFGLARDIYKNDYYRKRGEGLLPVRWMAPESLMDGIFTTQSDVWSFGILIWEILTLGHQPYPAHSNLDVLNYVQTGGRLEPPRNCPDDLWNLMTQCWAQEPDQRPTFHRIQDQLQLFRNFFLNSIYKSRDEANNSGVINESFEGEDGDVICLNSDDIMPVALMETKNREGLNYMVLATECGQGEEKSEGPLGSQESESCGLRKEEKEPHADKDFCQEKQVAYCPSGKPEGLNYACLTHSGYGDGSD
Protocol: (§1) Biochemical single point inhibition and IC50 concentrations for TBK1, IKKε (IKBKE), and off-target kinases were determined at ThermoFisher Scientific using SelectScreen Kinase Profiling Services (Madison, Wis., USA) (Tables S4A and S4B-1-7). To determine cellular potency, the human colorectal cancer carcinoma cell line HCT116 (ATCC, Manassas, Va.) was maintained in T175 flasks in complete RPMI medium; RPMI 1640 supplemented with 10% FBS, 1× Penicillin-Streptomycin solution and 1×MEM (non-essential amino acids). HCT116 cells were grown to 90-95% confluency in T175 flasks containing complete RPMI medium and transfected in bulk using Lipofectamine 2000 (Invitrogen, Carlsbad, Calif.) with 70 μg of ISG54-luciferase reporter plasmid (Elim Biopharmaceuticals Inc., Hayward, Calif.). The reporter plasmid contains a luciferase gene expression cassette under the transcriptional regulation of the promoter of the human interferon stimulated gene 54 (ISG54). Transfection of the cells was allowed to take place for 6 hours, after which the cells were harvested by treatment with 0.25% trypsin EDTA (Corning Inc., Corning, N.Y.). Trypsinized cells were added to 384-well poly-d-lysine treated black clear bottom tissue culture assay plates (Greiner Bio-One GmbH, Kremsmünster, Austria) at a density of 20,000 cells/well in 80 μL of complete RPMI medium and incubated overnight. After 16-18 hours post-transfection, the assay plates were washed with PBS (Corning Inc., Corning, N.Y.), followed by addition of 80 μL/well of serum-free RPMI 1640 medium containing 1× Penicillin-Streptomycin solution, 1×MEM and 350 nL of DMSO or titrations of Compound 1. Compound 1 titrations were generated by 1.5-fold dilution steps in two overlapping serial dilution series to generate a 40-point compound dose range. After incubation at 37° C. for 1 hour, the cells were stimulated with Poly(I:C) (InvivoGen, San Diego, Calif.) at a final concentration of 15 μg/mL in Optimem media (Life Technologies, Rockville, Md.). The assay plates were incubated for 5 hours at 37° C., followed by addition of One-Glo luciferase firefly reagent (Promega, Madison, Wis.) at 1:1 volume/well and luminescence was measured in an EnVision Multilabel Plate Reader (PerkinElmer, Santa Clara, Calif.). The EC50 values were calculated from the fit of the dose-response curves to a four-parameter equation. All EC50 values represent geometric mean values of a minimum of four determinations.

[2] = molecular target: T1, off-target kinases (Homo sapiens, UniProt P33981); conditions: TTK, LanthaScreen Binding
T1 sequence (P33981 1-857): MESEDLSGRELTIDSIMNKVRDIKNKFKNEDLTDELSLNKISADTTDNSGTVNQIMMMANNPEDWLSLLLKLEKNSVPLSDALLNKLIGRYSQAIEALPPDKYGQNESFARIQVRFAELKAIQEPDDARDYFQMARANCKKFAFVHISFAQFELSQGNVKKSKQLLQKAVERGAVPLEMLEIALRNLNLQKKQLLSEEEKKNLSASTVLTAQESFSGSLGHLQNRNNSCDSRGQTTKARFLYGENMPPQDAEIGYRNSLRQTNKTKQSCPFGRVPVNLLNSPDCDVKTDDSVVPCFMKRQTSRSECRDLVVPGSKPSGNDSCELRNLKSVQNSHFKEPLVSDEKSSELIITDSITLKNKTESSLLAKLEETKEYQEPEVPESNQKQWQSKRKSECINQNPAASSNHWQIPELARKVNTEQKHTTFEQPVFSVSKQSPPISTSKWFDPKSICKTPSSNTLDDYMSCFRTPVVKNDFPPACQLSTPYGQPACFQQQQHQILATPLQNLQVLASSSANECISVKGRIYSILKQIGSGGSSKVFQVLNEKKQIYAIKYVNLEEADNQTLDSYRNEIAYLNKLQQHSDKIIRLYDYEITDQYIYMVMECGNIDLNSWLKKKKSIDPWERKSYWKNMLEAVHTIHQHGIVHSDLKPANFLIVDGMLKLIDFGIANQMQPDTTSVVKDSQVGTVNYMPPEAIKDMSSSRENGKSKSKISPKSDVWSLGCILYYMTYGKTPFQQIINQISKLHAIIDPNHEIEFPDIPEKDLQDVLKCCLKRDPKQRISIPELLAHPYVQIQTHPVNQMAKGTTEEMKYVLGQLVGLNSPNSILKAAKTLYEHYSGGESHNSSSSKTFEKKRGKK
Protocol: as §1

[3] = molecular target: off-target kinases (Homo sapiens, UniProt P54764); conditions: EPHA4, ZLYTE, ATP Km app
off-target kinases (Homo sapiens, UniProt P54764), sequence (P54764 20-986): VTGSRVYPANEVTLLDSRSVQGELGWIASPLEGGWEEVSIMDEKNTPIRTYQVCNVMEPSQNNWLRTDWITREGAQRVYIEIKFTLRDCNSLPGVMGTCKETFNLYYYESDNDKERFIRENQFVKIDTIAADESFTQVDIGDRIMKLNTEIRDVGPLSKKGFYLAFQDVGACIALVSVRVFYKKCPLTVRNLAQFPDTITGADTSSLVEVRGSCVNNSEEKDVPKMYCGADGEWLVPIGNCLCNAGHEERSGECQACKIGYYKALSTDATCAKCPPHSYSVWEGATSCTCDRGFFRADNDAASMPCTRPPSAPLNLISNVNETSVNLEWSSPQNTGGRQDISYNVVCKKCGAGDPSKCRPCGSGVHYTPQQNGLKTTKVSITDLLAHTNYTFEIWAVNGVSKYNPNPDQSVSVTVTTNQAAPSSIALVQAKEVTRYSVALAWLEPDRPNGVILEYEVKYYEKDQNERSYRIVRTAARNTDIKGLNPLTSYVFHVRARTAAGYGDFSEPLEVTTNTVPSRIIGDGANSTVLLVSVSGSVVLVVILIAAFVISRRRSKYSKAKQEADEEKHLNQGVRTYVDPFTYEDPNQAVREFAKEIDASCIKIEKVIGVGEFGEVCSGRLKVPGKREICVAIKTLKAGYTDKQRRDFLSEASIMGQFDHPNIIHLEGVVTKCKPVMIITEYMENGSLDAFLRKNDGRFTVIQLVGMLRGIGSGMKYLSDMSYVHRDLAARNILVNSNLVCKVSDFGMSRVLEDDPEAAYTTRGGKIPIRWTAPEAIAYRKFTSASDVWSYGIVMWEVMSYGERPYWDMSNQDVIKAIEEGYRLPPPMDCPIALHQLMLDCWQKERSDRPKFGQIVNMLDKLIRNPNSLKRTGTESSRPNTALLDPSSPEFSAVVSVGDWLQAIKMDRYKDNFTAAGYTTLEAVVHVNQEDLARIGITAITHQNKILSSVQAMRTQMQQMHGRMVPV
Protocol: as §1

[4] = molecular target: off-target kinases (Homo sapiens, UniProt Q16513); conditions: PKN2 (PRK2), LanthaScreen Binding
Protocol: as §1

[5] = molecular target: off-target kinases (Homo sapiens, UniProt Q16539); conditions: ZLYTE
off-target kinases (Homo sapiens, UniProt Q16539), sequence (Q16539 whole entry): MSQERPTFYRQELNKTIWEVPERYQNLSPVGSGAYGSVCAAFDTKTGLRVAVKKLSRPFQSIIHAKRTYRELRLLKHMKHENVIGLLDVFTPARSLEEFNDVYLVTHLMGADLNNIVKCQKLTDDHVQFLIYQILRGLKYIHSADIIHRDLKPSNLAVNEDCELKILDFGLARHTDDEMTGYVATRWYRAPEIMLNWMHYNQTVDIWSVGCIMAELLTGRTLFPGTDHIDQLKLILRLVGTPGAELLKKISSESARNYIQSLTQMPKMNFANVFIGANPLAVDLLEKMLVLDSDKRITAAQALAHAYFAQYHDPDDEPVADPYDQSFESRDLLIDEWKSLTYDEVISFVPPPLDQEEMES
Protocol: as §1

[6] = molecular target: off-target kinases (Homo sapiens, UniProt Q8NEB9); conditions: PIK3C3 (hVPS34); Cmpd1 1000 μM; ATP Km app; Adapta
Protocol: as §1

[7] = molecular target: off-target kinases (Homo sapiens, UniProt Q9P286); conditions: PAK7 (KIAA1264), ATP Km app, ZLYTE
off-target kinases (Homo sapiens, UniProt Q9P286), sequence (Q9P286 whole entry): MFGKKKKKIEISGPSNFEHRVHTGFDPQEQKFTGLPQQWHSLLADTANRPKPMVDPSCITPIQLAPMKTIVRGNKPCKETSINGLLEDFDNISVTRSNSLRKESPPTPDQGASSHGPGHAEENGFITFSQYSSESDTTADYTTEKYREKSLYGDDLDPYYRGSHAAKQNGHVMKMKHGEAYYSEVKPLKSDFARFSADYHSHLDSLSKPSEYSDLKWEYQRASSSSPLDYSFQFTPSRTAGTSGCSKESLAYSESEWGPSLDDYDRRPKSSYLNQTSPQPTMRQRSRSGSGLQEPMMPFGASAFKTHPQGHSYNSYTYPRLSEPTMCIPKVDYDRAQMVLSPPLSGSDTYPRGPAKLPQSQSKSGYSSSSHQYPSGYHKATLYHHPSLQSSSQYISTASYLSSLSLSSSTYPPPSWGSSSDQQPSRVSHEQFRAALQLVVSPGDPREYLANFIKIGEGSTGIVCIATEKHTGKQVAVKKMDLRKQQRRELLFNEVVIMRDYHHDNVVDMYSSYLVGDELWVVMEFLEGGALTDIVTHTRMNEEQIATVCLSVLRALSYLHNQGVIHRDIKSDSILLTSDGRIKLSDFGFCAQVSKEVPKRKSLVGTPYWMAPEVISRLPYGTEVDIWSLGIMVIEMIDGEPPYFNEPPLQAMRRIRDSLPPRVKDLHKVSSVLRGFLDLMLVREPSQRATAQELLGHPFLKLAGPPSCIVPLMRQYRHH
Protocol: as §1

[8] = molecular target: off-target kinases (Homo sapiens, UniProt Q9UIK4); conditions: DAPK2, LanthaScreen Binding
off-target kinases (Homo sapiens, UniProt Q9UIK4), sequence (Q9UIK4 whole entry): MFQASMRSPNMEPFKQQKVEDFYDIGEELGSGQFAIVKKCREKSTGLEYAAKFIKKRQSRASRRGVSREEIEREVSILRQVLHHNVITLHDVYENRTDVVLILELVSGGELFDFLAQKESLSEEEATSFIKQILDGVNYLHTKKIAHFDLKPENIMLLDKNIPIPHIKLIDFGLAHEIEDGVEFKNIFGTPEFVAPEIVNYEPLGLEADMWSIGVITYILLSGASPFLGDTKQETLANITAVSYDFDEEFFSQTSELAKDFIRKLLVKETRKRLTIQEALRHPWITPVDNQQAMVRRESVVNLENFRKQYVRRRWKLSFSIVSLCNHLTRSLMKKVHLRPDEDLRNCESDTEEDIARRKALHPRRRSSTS
Protocol: as §1

Compound `N#Cc1cc(-c2ncnc(Nc3ccc(N4CCN(C5COC5)CC4)cc3)n2)ccc1OC1CCOCC1` [Compound 1, 5-(4-((4-(4-(oxetan-3-yl)piperazin-1-yl)phenyl)amino)-1,3,5-triazin-2-yl)-2-((tetrahydro-2H-pyran-4-yl)oxy)benzonitrile] has an inhibition ([1]; read-out: % Inhibition 1) of 30%, an inhibition ([1]; read-out: % Inhibition 2) of 26% and an inhibition ([1]; read-out: % Inhibition Avg) of 28%. The inhibition ([2]; read-out: % Inhibition 1) was 33%, the inhibition ([2]; read-out: % Inhibition 2) was 34% and the inhibition ([2]; read-out: % Inhibition Avg) was 33%. For the same compound, the inhibition ([3]; read-out: % Inhibition 1) was 18%, the inhibition ([3]; read-out: % Inhibition 2) was 21% and the inhibition ([3]; read-out: % Inhibition Avg) was 20%. It also gave an inhibition ([4]; read-out: % Inhibition 1) of 51%, an inhibition ([4]; read-out: % Inhibition 2) of 52% and an inhibition ([4]; read-out: % Inhibition Avg) of 51%. It also gave an inhibition ([5]; MAPK14 (p38 alpha) Direct, ATP Km app, read-out: % Inhibition 1) of 2%, an inhibition ([5]; MAPK14 (p38 alpha) Direct, ATP Km app, read-out: % Inhibition 2) of 1% and an inhibition ([5]; MAPK14 (p38 alpha) Direct, ATP Km app, read-out: % Inhibition Avg) of 1%. The inhibition ([5]; MAPK14 (p38 alpha), ATP 100, read-out: % Inhibition 1) was -1%, the inhibition ([5]; MAPK14 (p38 alpha), ATP 100, read-out: % Inhibition 2) was 9% and the inhibition ([5]; MAPK14 (p38 alpha), ATP 100, read-out: % Inhibition Avg) was 4%. The “% Inhibition 1” value [6] was −5%, the “% Inhibition 2” value [6] was −9% and the “% Inhibition Avg” value [6] was −7%. It also gave an inhibition ([7]; read-out: % Inhibition 1) of 77%, an inhibition ([7]; read-out: % Inhibition 2) of 79% and an inhibition ([7]; read-out: % Inhibition Avg) of 78%. It also gave an inhibition ([8]; read-out: % Inhibition 1) of 60%, an inhibition ([8]; read-out: % Inhibition 2) of 53% and an inhibition ([8]; read-out: % Inhibition Avg) of 56%.
